Values joined by “and” are separate entries in the source; they are usually repeats but may differ in a detail not shown here. Equal entries are not always repeated. Where two headings read alike, the source gives them in different places.
Experiments:
[1] = test system: MOLP-8 human multiple myeloma cell line; assay: MOLP8 Caspase-Glo 3/7 luminescent assay; format: cell-based; details: 2 hours incubation, averaged values over all runs on all batches
From the text: (§1) MCL-1 is a regulator of apoptosis and is highly over-expressed in tumor cells that escape cell death. The assay evaluates the cellular potency of small-molecule compounds targeting regulators of the apoptosis pathway, primarily MCL-1, Bfl-1, Bcl-2, and other proteins of the Bcl-2 family. Protein-protein inhibitors disrupting the interaction of anti-apoptotic regulators with BH3-domain proteins initiate apoptosis.
The Caspase-Glo® 3/7 Assay is a luminescent assay that measures caspase-3 and -7 activities in purified enzyme preparations or cultures of adherent or suspension cells. The assay provides a proluminescent caspase-3/7 substrate, which contains the tetrapeptide sequence DEVD. This substrate is cleaved to release aminoluciferin, a substrate of luciferase used in the production of light. Addition of the single Caspase-Glo® 3/7 Reagent in an “add-mix-measure” format results in cell lysis, followed by caspase cleavage of the substrate and generation of a “glow-type” luminescent signal.
This assay uses the MOLP-8 human multiple myeloma cell line, which is sensitive to MCL-1 inhibition.
Cell cultures were maintained between 0.2 and 2.0×10^6 cells/mL. The cells were harvested by collection in 50 mL conical tubes. The cells were then pelleted at 500 g for 5 mins before removing supernatant and resuspension in fresh pre-warmed culture medium. The cells were counted and diluted as needed.
The assay reagent was prepared by transferring the buffer solution to the substrate vial and mixing. The solution may be stored for up to 1 week at 4° C. with negligible loss of signal.
Compounds were delivered in assay-ready plates (Proxiplate) and stored at −20° C.
Assays always include 1 reference compound plate containing reference compounds. The plates were spotted with 40 nL of compounds (0.5% DMSO final in cells; serial dilution; 30 μM highest conc. ⅓ dilution, 10 doses, duplicates). The compounds were used at room temperature and 4 μL of pre-warmed media was added to all wells except column 2 and 23. The negative control was prepared by adding 1% DMSO in media. The positive control was prepared by adding the appropriate positive control compound in final concentration of 60 μM in media. The plate was prepared by adding 4 μL negative control to column 23, 4 μL positive control to column 2 and 4 μL cell suspension to all wells in the plate. The plate with cells was then incubated at 37° C. for 2 hours. The assay signal reagent is the Caspase-Glo solution described above, and 8 μL was added to all wells. The plates were then sealed and measured after 30 minutes.
The activity of a test compound was calculated as percent change in apoptosis induction as follows:
LC=median of the Low Control values • =Central Reference in Screener • =DMSO • =0% ΠC=Median of the High Control values • =Scale Reference in Screener • =30 pM of positive control • =100% apoptosis induction
% Effect (AC50)=100−(sample−LC)/(HC−LC)*100
% Control=(sample/HC)*100
% Control min=(sample−LC)/(HC−LC)*100

MOLP8 cells = assay: MOLP8 CellEvent Caspase-3/7 Green apoptosis activation assay (IncuCyte live-cell kinetic readout); format: cell-based; details: each independent run listed
Description: as §1
Activation of the apoptotic pathway was measured using the CellEvent™ Caspase-3/7 Green ReadyProbes™ Reagent (Thermo Fisher C10423, C10723). This assay produces a green fluorescent stain in cells that enter the apoptosis pathway. CellEvent® Caspase-3/7 Green reagent is a four amino acid peptide (DEVD) conjugated to a nucleic acid-binding dye that is non-fluorescent when not bound to DNA. The CellEvent® Caspase-3/7 Green reagent is intrinsically non-fluorescent, as the DEVD peptide inhibits binding of the dye to DNA. Upon activation of caspase-3/7 in apoptotic cells, the DEVD peptide is cleaved and the free dye can bind DNA, generating a bright green fluorescence. The activation of Caspase-3 and Caspase-7 is downstream of inhibition of MCL-1 or other apoptosis inhibiting proteins in cell lines that are dependent on them.
The live-cell readout on the IncuCyte permits tracking over time of the Caspase activation. […] The IncuCyte readout also allows one to normalize for cell number, as the suspension cells are hard to distribute evenly.
Signals were measured every 2 h for a duration of 22 h. The ratio of the Caspase mask to the Confluence mask, per image, as raw data, was calculated and the kinetic trace for every well was exported to Genedata Screener for analysis.
In Genedata Screener values for 6 h, 12 h, and 22 h from the kinetic traces were extracted. The values were normalized against negative controls (untreated cells). A standard dose-response analysis was performed on the normalized data.
The following data was reported at each of the following three aforementioned time points: (a) The dose-response curve, (b) The qAC50 and qAC50 Mode, and (c) Max Activity.
Cells were maintained in culture medium containing 10% Heat Inactivated (HI) FBS, 2 mM L-Glutamine and 50 µg/mL Gentamycin phenol red free RPMI-1640. Cells were split at 0.4 million/mL twice a week.
On Day 1, plates containing individual wells with test compounds at 10 mM concentration, 150 nL per well. The final concentrations range from […] compound (and no compound control) and compounds were thawed at room temperature for 1 hour. 25 μl of prewarmed medium was added into each well by multidrop (column 1, 3-22, 24), followed by addition of DMSO control (0.6% DMSO) in column 2. The plate was sealed using Breathe-Easy® sealing membrane and shaken for 30 min at room temperature to dissolve the test compound(s) in medium. The plate was then kept in the incubator for 1 hour at 37° C., 5% CO2.
MOLP8 cells in medium at […] (20000/50 μl final in assay) were prepared with CellEvent™ Caspase-3/7 Green Detection Reagent at 4 μM (2 μM final in assay). Once prepared, the cells were added to the test compound plate in an amount of 20000 and the plate was immediately placed in the IncuCyte and imaging started using following settings: 10× objective, 2 s exposure time in green channel, interval of 2 h, acquisition stopped after 22 h.
For analysis in IncuCyte, a Basic Analysis protocol was defined to calculate the “confluence” and “caspase” areas from the “Phase” and “green” images, respectively, as follows: (a) Confluence: Segmentation Adjustment 1, Hole Fill 0, Adjust Size −2, No filters (b) Caspase: Top-Hat segmentation, Radius 10, Threshold 0.3 GCU, Edge Split On with sensitivity 0, Hole Fill 0, Adjust Size 1, and filter on a minimum Area of 20 μm^2. The analyzer is trained on a sufficient number of positive and negative control wells, as well as compound treated wells, verifying that the “confluence” layer detects both live and dead (condensed) cells. […]

[2] = test system: Molp8 multiple myeloma cell line; assay: Molp8 multiple myeloma cell line survival assay using Annexin V and 7AAD; format: cell-based, human; details: live cell percent by Annexin V/7AAD flow cytometry, 3 days incubation, each independent run listed individually, read-out: MOLP8 Apoptosis IC50
From the text: Molp8 multiple myeloma cell line survival assay using Annexin V and 7AAD.
The Annexin V/7AAD principle is based on the location of phosphatidylserine in the plasma membrane and the integrity of the membrane barrier. During early apoptosis, phosphatidylserine loses its normal distribution patterns in the inner leaflet of the plasma membrane and appears on the exterior of the plasma membrane. Annexin proteins are calcium dependent phospholipid binding proteins and can bind phosphatidylserine on the outer membrane during cell death. The viability dye 7AAD is excluded from entering cells with intact plasma membranes but accumulates in cells that have lost membrane integrity. Annexin Fitc is excited by the 488 nm laser (max excitation: 490 nm, max emission: 525 nm) as is 7AAD (excitation: 488 nm, emission: 650 nm), which allows this assay to be completed on any multicolor flow cytometer.
The assay conditions were optimized using the following 1× reaction buffer: 5 mM HEPES (4-(2-hydroxyethyl)-1-piperazineethanesulfonic acid), 70 mM NaCl, 1.25 mM CaCl2, pH 7.4.
The Molp 8 cells were multiple myeloma, human, in suspension (*cells were counted 2× per week and culture density maintained between 0.5 and 1.5×10^6 cells per ml).
On Day 1, 5×10^4 live cells per well were plated in a 96-well U-bottom plate, with the cells plated in 100 uL RPMI+10% FBS. An 11-point compound dilution plate was prepared in 3-fold steps (Final concentration range 10 μM-0.1 nM) and added at a concentration of 1 μL per well. The plate was then incubated for 3 days at 37° C. and 5% CO2.
On Day 4, the cells were pelleted and the media discarded. The cells were then resuspended in 50 μL AnnexinV-Fitc (1:40 dilution) and 7AAD (1:100 dilution) in Annexin binding buffer, then incubated for 30 min @ room temperature in the dark. 50 μL binding buffer (100 uL total volume) was then added to the cells. There was no wash step required.
Within 2 hours, PeCy5 (7AAD) and Fitc (Annexin) channels were recorded using BD Canto, collecting a minimum per singlet of 10,000 events.
The activity of a test compound was calculated based on the live cell percentage. • LC=Median of the low control values • =Low control: cells without treatment (no greater than 100% live) • HC=Median of the high control values • =High control: cells treated with 10 uM drug (no less than 0% live)
A best-fit curve was fitted by a minimum sum of squares method to the plot of live cell percent vs. compound concentration. From this an IC50 value (inhibitory concentration causing 50% cytotoxicity) was obtained. An estimate of the slope of the plot in terms of the Hill coefficient was also obtained.

[3] = Homo sapiens, MOLP-8, 6 h, 6 h, read-out: MOLP8 Caspase 3/7 AC50 at 6 h
[4] = Homo sapiens, MOLP-8, 12 h, 12 h, read-out: MOLP8 Caspase 3/7 AC50 at 12 h

| SMILES | AC50 [1] | AC50 ([1]; Homo sapiens, MOLP-8, 2 h) | also measured |
| --- | --- | --- | --- |
| Cc1c(C(=O)O)n2c3ccc(Cl)c(c13)-c1c(nn(C)c1C)CSCc1cc([nH]n1)CSc1cc(c3ccccc3c1)OCCC2 (single isomer, unassigned) [Compound 8] | 90 nM |  |  |
| Cc1c(C(=O)O)n2c3ccc(Cl)c(c13)-c1c(nn(C)c1C)CSCc1cc(n(C(C)C)n1)CSc1cc(c3ccccc3c1)OCCC2 (single isomer, unassigned) [Compound 12] |  | 510 nM |  |
| Cc1c(C(=O)O)n2c3ccc(Cl)c(c13)-c1c(nn(C)c1C)CNCc1cc(n(C)n1)CSc1cc(c3ccccc3c1)OCCC2 [Compound 4, 15-Chloro-13,21,25,61-tetramethyl-11H,21H,61H-10-oxa-8-thia-4-aza-1(4,1)-indola-2(4,3),6(3,5)-dipyrazola-9(3,1)-naphthalenacyclotridecaphane-12-Carboxylic acid] |  | 920 nM | AC50 (MOLP8 cells; [3]): 1620 nM; AC50 (MOLP8 cells; [4]): 1590 nM; AC50 (MOLP8 cells; Homo sapiens, MOLP-8, 22 h, 22 h, read-out: MOLP8 Caspase 3/7 AC50 at 22 h): 1380 nM |
| Cc1c(C(=O)O)n2c3ccc(Cl)c(c13)-c1c(nn(C)c1C)CN(C)Cc1cc(n(C)n1)CSc1cc(c3ccccc3c1)OCCC2 (single isomer, unassigned) [Compound 5] |  | 14500 nM |  |
| CCn1nc2cc1CSc1cc(c3ccccc3c1)OCCCn1c(C(=O)O)c(C)c3c(c(Cl)ccc31)-c1c(nn(C)c1C)CSC2 (single isomer, unassigned) [Compound 10] |  | 120 nM |  |
| Cc1[nH]nc2c1-c1c(Cl)ccc3c1c(C)c(C(=O)O)n3CCCOc1cc(cc3ccccc13)SCc1cc(nn1C)CSC2 (single isomer, unassigned) [Compound 16] | 540 nM |  |  |
| Cc1c(C(=O)O)n2c3ccc(Cl)c(c13)-c1c(nn(C)c1C)CN(C)Cc1cc(n(C)n1)CSc1cc(c3ccccc3c1)OCCC2 [Compound 3, 15-chloro-13,21,25,61,4-pentamethyl-11H,21H,61H-10-oxa-8-thia-4-aza-1(4,1)-indola-2(4,3),6(3,5)-dipyrazola-9(3,1)-naphthalenacyclotridecaphane-12-carboxylic acid] |  |  | IC50 ([2]; Homo sapiens, MOLP-8, 72 h): 200 nM; IC50 [2]: 256 nM; AC50 (MOLP8 cells; 6 h, read-out: MOLP8 Caspase 3/7 AC50 at 6 h): 178 nM and 251 nM; AC50 (MOLP8 cells; 12 h, read-out: MOLP8 Caspase 3/7 AC50 at 12 h): 263 nM and 195 nM; AC50 (MOLP8 cells; [3]): 347 nM; AC50 (MOLP8 cells; [4]): 363 nM |
| CCn1nc2cc1CSCc1nn(C)c(C)c1-c1c(Cl)ccc3c1c(C)c(C(=O)O)n3CCCOc1cc(cc3ccccc13)SC2 (single isomer, unassigned) [Compound 11] |  | > 30000 nM |  |
| Cc1[nH]nc2c1-c1c(Cl)ccc3c1c(C)c(C(=O)O)n3CCCOc1cc(cc3ccccc13)SCc1cc(nn1C)CN(C)C2 (single isomer, unassigned) [Compound 14] | 920 nM |  |  |
| Cc1c(C(=O)O)n2c3ccc(Cl)c(c13)-c1c(nn(C)c1C)CSCc1cc([nH]n1)CSc1cc(c3ccccc3c1)OCCC2 (single isomer, unassigned) [Compound 7] |  | 70 nM |  |
| Cc1[nH]nc2c1-c1c(Cl)ccc3c1c(C)c(C(=O)O)n3CCCOc1cc(cc3ccccc13)SCc1cc(nn1C)CN(C)C2 (single isomer, unassigned) [Compound 15] | 15300 nM |  |  |
| Cc1[nH]nc2c1-c1c(Cl)ccc3c1c(C)c(C(=O)O)n3CCCOc1cc(cc3ccccc13)SCc1cc(nn1C)CSC2 (single isomer, unassigned) [Compound 17] | 21300 nM |  |  |
| Cc1c(C(=O)O)n2c3ccc(Cl)c(c13)-c1c(nn(C)c1C)CN(C(C)C)Cc1cc(n(C)n1)CSc1cc(c3ccccc3c1)OCCC2 [Compound 9] |  | 160 nM |  |
| Cc1c(C(=O)O)n2c3ccc(Cl)c(c13)-c1c(nn(C)c1C)CSCc1cc(nn1C(C)C)CSc1cc(c3ccccc3c1)OCCC2 (single isomer, unassigned) [Compound 13] |  | 1250 nM |  |
